Key:
[1] = target: Potassium/sodium hyperpolarization-activated cyclic nucleotide-gated channel 2 (Homo sapiens, UniProt Q9UL51); assay: Inhibition of HCN2 (unknown origin) at 3 uM relative to control
SK-OV-3 = assay: Antitumor activity against human SKOV3 cells xenografted in BALB/c nude mouse assessed as tumor growth inhibition at 80 mg/kg, po administered once daily for 21 days relative to control; type: functional; settings: SK-OV-3, po, 504 h, read-out: TGI
[2] = target: Sodium channel protein type 9 subunit alpha (Homo sapiens, UniProt Q15858); assay: Inhibition of Nav1.7 (unknown origin)
[3] = target: Rho-associated protein kinase 1 (Homo sapiens, UniProt Q13464); assay: Inhibition of human ROCK1 by mobile shift assay
[4] = Toxicity in ICR mouse assessed as effect on serum hematology at 80 to 160 mg/kg, ig; type: organism-based; settings: in vivo, po
[5] = MRT (0 to t) in ICR mouse at 40 mg/kg, ig measured up to 48 hrs by LC-MS/MS analysis; type: ADME, organism-based; settings: in vivo, po
[6] = target: RAC-alpha serine/threonine-protein kinase (Homo sapiens, UniProt P31749)
Description: Inhibition of human Akt1 expressed in Escherichia coli using STK Substrate 2-biotin as substrate incubated for 1 hr by HTRF assay

[7] = Volume of distribution in ICR mouse at 40 mg/kg, ig measured up to 48 hrs by LC-MS/MS analysis; type: ADME, organism-based; settings: in vivo, po
[8] = MRT (0 to infinity) in ICR mouse at 40 mg/kg, ig measured up to 48 hrs by LC-MS/MS analysis; type: ADME, organism-based; settings: in vivo, po
[9] = target: Potassium voltage-gated channel subfamily A member 5 (Homo sapiens, UniProt P22460); assay: Inhibition of Kv1.5 (unknown origin) at 3 uM relative to control
[10] = target: Serine/threonine-protein kinase AKT (Homo sapiens, UniProt P31751+Q9Y243+P31749); assay: Inhibition of Akt in human LNCaP cells assessed as reduction in PRAS40 phosphorylation at T246 residue after 1 hr by ELISA; type: cell-based
[11] = target: Potassium/sodium hyperpolarization-activated cyclic nucleotide-gated channel 1 (Homo sapiens, UniProt O60741); assay: Inhibition of HCN1 (unknown origin) at 3 uM relative to control
[12] = Half-life in Sprague-Dawley rat at 40 mg/kg, ig measured up to 24 hrs by LC-MS/MS analysis; type: ADME, organism-based; settings: in vivo, po
[13] = target: T1, Serine/threonine-protein kinase Sgk1 (Homo sapiens, UniProt O00141); assay: Inhibition of human SGK by mobility shift assay
T1 sequence (O00141 whole entry): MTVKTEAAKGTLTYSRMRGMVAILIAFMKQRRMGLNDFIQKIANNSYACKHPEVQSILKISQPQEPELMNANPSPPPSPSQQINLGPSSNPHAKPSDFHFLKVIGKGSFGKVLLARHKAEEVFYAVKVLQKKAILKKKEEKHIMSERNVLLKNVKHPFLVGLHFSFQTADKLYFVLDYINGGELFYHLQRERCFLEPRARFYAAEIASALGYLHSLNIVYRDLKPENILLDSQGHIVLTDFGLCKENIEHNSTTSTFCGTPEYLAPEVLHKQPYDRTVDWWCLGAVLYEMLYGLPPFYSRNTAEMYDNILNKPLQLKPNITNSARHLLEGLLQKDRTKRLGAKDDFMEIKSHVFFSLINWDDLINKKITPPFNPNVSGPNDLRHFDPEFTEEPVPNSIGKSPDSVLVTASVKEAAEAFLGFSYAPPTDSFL

[14] = target: Cystic fibrosis transmembrane conductance regulator (Homo sapiens, UniProt P13569); assay: Inhibition of CFTR (unknown origin)
[15] = target: Inward rectifier potassium channel 2 (Homo sapiens, UniProt P63252); assay: Inhibition of Kir2.1 (unknown origin) at 3 uM relative to control
[16] = target: Potassium voltage-gated channel subfamily A member 7 (Homo sapiens, UniProt Q96RP8); assay: Inhibition of Kv1.7 (unknown origin) at 3 uM relative to control
[17] = Toxicity in ICR mouse assessed as effect on biochemical parameter at 80 to 160 mg/kg, ig; type: organism-based; settings: in vivo, po
Protein kinase C (PKC) = assay: Inhibition of PKC (unknown origin); type: protein assay, Homo sapiens
[18] = target: Potassium voltage-gated channel subfamily A member 3 (Homo sapiens, UniProt P22001); assay: Inhibition of Kv1.3 (unknown origin) at 3 uM relative to control
[19] = Tmax in ICR mouse at 40 mg/kg, ig measured up to 48 hrs by LC-MS/MS analysis; type: ADME, organism-based; settings: in vivo, po
[20] = Toxicity in BALB/c nude mouse xenografted with human SKOV3 cells assessed as reduction in mouse survival at 60 to 80 mg/kg, po administered once daily for 21 days; type: organism-based; settings: in vivo, 504 h
[21] = Half-life in ICR mouse at 40 mg/kg, ig measured up to 48 hrs by LC-MS/MS analysis; type: ADME, organism-based; settings: in vivo, po
[22] = Stability in mouse plasma at 100 ug/ml after 1 hr by LC/MS analysis; type: ADME, cell-free; settings: read-out: Stability
[23] = Toxicity in ICR mouse assessed as effect on body weight at 80 to 160 mg/kg, ig administered once daily for 7 days; type: organism-based; settings: in vivo, po, 168 h
[24] = Tmax in Sprague-Dawley rat at 40 mg/kg, ig measured up to 24 hrs by LC-MS/MS analysis; type: ADME, organism-based; settings: in vivo, po
[25] = Toxicity in BALB/c nude mouse xenografted with human SKOV3 cells assessed as effect on body weight at 60 to 80 mg/kg, po administered once daily for 21 days; type: organism-based; settings: in vivo, 504 h
[26] = Toxicity in ICR mouse assessed as reduction in organ to brain weight ratio of thymus at 80 to 160 mg/kg, ig once daily for 7 days; type: organism-based; settings: in vivo, po, 168 h
[27] = Stability in human plasma at 100 ug/ml after 1 hr by LC/MS analysis; type: ADME, cell-free; settings: read-out: Stability
[28] = MRT (0 to infinity) in Sprague-Dawley rat at 40 mg/kg, ig measured up to 24 hrs by LC-MS/MS analysis; type: ADME, organism-based; settings: in vivo, po
[29] = Clearance in ICR mouse at 40 mg/kg, ig measured up to 48 hrs by LC-MS/MS analysis; type: ADME, organism-based; settings: in vivo, po
[30] = target: RAC-gamma serine/threonine-protein kinase (Homo sapiens, UniProt Q9Y243); assay: Inhibition of Akt3 (unknown origin) by mobile shift assay
[31] = Toxicity in ICR mouse assessed as induction of intestinal hemorrhage at 80 to 160 mg/kg, ig; type: organism-based; settings: in vivo, po
[32] = Toxicity in BALB/c nude mouse xenografted with human SKOV3 cells assessed as reduction in mouse survival at 40 mg/kg, po BID for 21 days; type: organism-based; settings: in vivo, 504 h
[33] = Microsomal stability in monkey liver microsomes assessed as compound remaining at 100 ug/ml in presence of NADPH measured at 1.5 hrs by LC/MS analysis; type: ADME, Macaca mulatta, Microsome; settings: rhesus monkey, read-out: Stability
[34] = target: Potassium voltage-gated channel subfamily A member 6 (Homo sapiens, UniProt P17658); assay: Inhibition of Kv1.6 (unknown origin) at 3 uM relative to control
Chain of Potassium voltage-gated channel subfamily A member 6 (P17658 whole entry): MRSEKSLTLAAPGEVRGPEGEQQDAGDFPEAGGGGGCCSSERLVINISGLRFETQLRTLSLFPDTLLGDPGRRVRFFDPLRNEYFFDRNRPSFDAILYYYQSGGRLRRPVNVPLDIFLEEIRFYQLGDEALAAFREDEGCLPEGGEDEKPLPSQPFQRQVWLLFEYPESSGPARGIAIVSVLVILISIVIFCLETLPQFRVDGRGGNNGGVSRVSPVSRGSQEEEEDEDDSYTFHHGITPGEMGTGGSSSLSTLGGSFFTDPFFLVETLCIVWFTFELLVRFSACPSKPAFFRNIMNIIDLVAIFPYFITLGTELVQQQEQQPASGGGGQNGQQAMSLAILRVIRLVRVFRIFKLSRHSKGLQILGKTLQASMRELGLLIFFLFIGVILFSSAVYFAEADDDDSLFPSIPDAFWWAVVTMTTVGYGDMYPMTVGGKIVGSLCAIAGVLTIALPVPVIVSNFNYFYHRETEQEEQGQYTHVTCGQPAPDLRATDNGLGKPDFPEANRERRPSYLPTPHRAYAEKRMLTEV

Chain of Inward rectifier potassium channel 2 (P63252 whole entry): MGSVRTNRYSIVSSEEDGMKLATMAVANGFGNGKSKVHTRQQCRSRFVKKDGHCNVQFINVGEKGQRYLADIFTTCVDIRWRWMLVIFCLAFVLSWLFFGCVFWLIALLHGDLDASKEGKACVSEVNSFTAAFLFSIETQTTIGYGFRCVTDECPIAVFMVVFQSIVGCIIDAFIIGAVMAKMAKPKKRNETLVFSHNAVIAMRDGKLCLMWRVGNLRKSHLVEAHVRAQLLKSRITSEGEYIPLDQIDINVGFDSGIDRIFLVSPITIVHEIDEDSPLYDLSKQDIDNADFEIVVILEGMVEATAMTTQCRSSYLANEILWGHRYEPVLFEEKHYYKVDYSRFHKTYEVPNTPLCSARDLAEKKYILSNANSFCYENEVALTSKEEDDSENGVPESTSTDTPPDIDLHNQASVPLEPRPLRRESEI
Chain of Sodium channel protein type 9 subunit alpha (Q15858 whole entry): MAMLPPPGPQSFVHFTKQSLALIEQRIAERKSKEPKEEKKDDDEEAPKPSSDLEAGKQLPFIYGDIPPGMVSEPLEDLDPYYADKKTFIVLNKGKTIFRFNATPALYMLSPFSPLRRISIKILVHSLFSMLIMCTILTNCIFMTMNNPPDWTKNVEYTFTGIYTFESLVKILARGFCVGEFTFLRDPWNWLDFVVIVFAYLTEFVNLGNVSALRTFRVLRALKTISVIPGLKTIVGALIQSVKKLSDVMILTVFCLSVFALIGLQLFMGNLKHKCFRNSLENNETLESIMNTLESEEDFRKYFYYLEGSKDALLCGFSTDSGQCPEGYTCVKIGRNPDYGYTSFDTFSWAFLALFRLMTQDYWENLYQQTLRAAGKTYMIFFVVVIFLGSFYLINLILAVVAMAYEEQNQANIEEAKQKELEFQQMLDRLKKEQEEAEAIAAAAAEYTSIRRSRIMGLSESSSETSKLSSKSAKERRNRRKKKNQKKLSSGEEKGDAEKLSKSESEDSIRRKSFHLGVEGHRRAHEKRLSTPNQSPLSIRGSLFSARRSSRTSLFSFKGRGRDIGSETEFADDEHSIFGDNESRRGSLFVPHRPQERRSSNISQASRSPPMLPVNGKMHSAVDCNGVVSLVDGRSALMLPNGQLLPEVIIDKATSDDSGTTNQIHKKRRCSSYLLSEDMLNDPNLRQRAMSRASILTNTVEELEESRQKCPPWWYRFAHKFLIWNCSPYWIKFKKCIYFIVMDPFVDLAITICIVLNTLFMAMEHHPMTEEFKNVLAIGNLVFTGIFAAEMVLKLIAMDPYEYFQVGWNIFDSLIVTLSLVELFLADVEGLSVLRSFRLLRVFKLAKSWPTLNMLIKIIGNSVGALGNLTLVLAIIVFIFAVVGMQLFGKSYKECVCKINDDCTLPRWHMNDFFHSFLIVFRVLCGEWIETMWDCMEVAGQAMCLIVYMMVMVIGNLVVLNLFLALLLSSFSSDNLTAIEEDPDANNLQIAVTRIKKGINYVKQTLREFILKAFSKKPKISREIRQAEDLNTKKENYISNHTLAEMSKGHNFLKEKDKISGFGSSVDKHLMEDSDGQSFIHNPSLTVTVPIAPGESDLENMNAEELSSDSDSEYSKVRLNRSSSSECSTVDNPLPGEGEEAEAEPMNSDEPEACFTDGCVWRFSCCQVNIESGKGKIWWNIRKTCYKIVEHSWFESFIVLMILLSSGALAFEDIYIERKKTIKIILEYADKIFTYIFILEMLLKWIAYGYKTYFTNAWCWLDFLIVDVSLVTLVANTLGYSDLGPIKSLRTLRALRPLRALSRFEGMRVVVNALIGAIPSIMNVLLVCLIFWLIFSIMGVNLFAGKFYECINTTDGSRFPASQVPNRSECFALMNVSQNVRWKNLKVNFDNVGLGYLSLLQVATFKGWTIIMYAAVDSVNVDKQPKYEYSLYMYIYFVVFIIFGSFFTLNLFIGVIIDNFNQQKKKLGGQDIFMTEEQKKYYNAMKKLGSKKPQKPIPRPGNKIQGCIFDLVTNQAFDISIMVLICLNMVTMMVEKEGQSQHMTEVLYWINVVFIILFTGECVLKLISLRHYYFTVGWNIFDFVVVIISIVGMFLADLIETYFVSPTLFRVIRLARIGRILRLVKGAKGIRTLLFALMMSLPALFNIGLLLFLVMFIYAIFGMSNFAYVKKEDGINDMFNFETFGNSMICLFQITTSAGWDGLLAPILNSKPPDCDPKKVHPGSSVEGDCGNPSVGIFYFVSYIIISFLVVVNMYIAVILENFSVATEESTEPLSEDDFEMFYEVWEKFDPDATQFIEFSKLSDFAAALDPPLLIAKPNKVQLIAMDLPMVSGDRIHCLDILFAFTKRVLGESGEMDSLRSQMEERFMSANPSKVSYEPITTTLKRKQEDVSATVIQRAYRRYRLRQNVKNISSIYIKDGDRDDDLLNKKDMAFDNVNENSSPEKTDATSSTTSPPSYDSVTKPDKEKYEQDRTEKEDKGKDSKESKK
Chain of Potassium voltage-gated channel subfamily A member 5 (P22460 whole entry): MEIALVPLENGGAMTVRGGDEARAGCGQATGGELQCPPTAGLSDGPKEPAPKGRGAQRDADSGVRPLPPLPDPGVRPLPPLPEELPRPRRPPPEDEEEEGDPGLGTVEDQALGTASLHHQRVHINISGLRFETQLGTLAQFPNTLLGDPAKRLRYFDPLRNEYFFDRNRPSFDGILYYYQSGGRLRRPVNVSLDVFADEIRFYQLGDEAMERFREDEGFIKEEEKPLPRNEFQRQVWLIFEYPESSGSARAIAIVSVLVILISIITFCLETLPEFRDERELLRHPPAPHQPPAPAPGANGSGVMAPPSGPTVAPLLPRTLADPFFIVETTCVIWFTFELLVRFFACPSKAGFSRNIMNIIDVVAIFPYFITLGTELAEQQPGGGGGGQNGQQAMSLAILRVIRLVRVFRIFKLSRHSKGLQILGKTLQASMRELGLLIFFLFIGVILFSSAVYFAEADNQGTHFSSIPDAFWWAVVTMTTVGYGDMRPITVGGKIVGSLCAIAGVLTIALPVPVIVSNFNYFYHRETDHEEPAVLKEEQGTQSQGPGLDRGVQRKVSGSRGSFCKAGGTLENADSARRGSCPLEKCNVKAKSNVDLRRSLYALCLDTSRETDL
Chain of Cystic fibrosis transmembrane conductance regulator (P13569 whole entry): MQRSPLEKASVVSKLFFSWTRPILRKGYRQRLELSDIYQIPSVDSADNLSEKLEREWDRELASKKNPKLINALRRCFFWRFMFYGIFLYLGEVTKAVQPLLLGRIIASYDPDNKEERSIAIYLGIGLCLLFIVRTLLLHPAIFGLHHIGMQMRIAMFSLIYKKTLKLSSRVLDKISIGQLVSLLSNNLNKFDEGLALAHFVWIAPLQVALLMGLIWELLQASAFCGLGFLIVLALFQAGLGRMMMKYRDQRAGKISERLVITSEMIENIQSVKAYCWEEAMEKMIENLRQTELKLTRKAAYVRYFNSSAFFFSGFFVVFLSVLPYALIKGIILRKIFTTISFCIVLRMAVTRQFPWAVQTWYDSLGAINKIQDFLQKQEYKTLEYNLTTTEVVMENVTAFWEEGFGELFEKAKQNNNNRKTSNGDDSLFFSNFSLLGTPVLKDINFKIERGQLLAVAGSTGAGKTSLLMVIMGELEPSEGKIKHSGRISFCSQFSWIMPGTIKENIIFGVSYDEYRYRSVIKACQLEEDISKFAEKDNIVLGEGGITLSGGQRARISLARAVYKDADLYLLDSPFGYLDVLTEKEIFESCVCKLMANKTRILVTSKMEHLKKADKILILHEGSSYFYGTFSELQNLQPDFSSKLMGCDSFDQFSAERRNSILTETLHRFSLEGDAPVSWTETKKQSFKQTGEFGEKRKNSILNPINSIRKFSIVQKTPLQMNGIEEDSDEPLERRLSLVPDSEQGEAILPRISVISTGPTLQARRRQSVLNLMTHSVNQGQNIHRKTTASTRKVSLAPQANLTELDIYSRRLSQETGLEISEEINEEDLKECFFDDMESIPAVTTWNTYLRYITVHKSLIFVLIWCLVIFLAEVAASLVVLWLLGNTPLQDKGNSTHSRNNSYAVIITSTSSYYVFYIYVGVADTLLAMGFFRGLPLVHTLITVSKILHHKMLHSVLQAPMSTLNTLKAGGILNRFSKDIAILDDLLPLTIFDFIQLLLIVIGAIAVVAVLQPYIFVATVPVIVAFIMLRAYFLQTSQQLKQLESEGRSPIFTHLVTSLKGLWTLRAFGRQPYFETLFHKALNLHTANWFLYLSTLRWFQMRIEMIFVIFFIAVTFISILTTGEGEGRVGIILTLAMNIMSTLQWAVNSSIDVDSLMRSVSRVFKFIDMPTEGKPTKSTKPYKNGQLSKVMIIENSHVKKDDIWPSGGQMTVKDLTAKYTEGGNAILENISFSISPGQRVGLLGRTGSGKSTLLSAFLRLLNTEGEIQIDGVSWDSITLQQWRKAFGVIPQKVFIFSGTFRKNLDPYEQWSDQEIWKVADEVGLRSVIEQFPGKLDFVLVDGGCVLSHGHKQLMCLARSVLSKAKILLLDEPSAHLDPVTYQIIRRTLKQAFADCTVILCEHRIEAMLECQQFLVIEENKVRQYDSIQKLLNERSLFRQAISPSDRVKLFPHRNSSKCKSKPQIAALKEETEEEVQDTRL

For `CNC(=O)C[C@@H]1C[C@@H](c2ccc(F)c(F)c2)[C@H](NC(=O)c2cc(-c3c(Cl)cnn3C)c(Cl)o2)CN1`, the “inhibition (INH)” value [1] was “Not Active”, the inhibition in vivo at 80 mg/kg (SK-OV-3) was 90% and the “inhibition (INH)” value [2] was “Not Active”. The IC50 [3] was 64 nM, the Activity [4] was “Non-Toxic” and the MRT last at 48 h [5] was 5.2 h. For the same compound, the IC50 [6] was 1.37 nM, the Vd [7] was 9 L/kg and the MRT inf [8] was 5.3 h. The “inhibition (INH)” value [9] was “Not Active”, the IC50 [10] was 44 nM and the “inhibition (INH)” value [11] was “Not Active”. The half-life [12] was 6.4 h, the IC50 [13] was 145 nM and the “inhibition (INH)” value [14] was “Not Active”. The “inhibition (INH)” value [15] was “Not Active”, the “inhibition (INH)” value [16] was “Not Active” and the Activity [17] was “Non-Toxic”. The IC50 (Protein kinase C (PKC)) was 94 nM, the “inhibition (INH)” value [18] was “Not Active” and the Tmax [19] was 1 h. The Activity [20] was “Non-Toxic”, the half-life [21] was 3.3 h and the remaining at 1 h, 100 ug/ml [22] was > 99%. For the same compound, the Activity [23] was “Non-Toxic”, the Tmax [24] was 1.8 h and the Activity [25] was “Non-Toxic”. The Activity [26] was “Toxic”, the remaining at 1 h, 100 ug/ml [27] was > 99% and the MRT inf [28] was 11.4 h. The CL/F [29] was 31.7 mL/min/kg, the IC50 [30] was 1.7 nM and the Activity [31] was “Toxic”. The Activity [32] was “Non-Toxic”, the remaining at 1.5 h, 100 ug/ml [33] was 84% and the “inhibition (INH)” value [34] was “Not Active”.
